For 11 compounds, GI50 and TGI results are on record in PubChem BioAssay (NCI).

Test systems include T-47D breast; HS 578T breast; MDA-MB-435; RPMI-8226 leukemia; SNB-19 CNS; SK-OV-3 ovarian; KM12 colon.
Common to all, as to assay: growth of human tumour cells (NCI), 48 h

Molecules are shown by their SMILES. “And” between values parts separate entries of the source, which are not always exact repeats. Equal entries are not always repeated.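 Dose response: 5 concentrations. Exposure: 48 h. Format: 96-well plates. Endpoint: linear interpolation; highest concentration if not reached. GI50 = concentration required for 50% inhibition of growth. TGI denotes the concentration required for complete inhibition of growth.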

For the compound `CCCn1c(C)nc2c1C(=O)c1ccccc1C2=O`, the GI50 with T-47D breast was 35.1 µM; in the test on HS 578T breast, 17.8 µM; in the test on MDA-MB-435 it was 17.2 µM; in the test on RPMI-8226 leukemia, 17.2 µM; in the test on SNB-19 CNS, 53.3 µM; in the test on SK-OV-3 ovarian it was 86.2 µM. Moreover, in the test on KM12 colon, the GI50 is 32.2 µM. Also, the TGI in the test with T-47D breast is greater than 100 µM; in the test with HS 578T breast, greater than 100 µM; in the test on MDA-MB-435 it was 32.9 µM; with RPMI-8226 leukemia, greater than 100 µM; with SNB-19 CNS, greater than 100 µM; with SK-OV-3 ovarian, greater than 100 µM. The TGI in the test on KM12 colon is greater than 100 µM.
`O=C1C(=O)c2c(nc3ccc(Cl)cn23)-c2ccccc21`: the GI50 in the test with T-47D breast was 0.394 µM; with HS 578T breast, 0.239 µM; in the test with MDA-MB-435, 0.183 µM; in the test on RPMI-8226 leukemia, 0.35 µM; with SNB-19 CNS, 1.32 µM; with SK-OV-3 ovarian, 1.71 µM. In addition, the GI50 in the test on KM12 colon is 1.78 µM. The TGI is 1.6 µM with T-47D breast; 0.74 µM in the test with HS 578T breast; 0.35 µM with MDA-MB-435; 2.88 µM with RPMI-8226 leukemia; 3 µM with SNB-19 CNS; 3.31 µM in the test with SK-OV-3 ovarian. The same compound registered a TGI in the test with KM12 colon of 3.89 µM.
In the case of `Cc1ccc(C(=O)Nc2cccc(C(F)(F)F)c2)cc1Nc1nc(-c2cccnc2)nc2c1cnn2C`, the GI50 in the test with T-47D breast is 3.44 µM and 1.86 µM; in the test with HS 578T breast, 1.94 µM and 1.41 µM; with MDA-MB-435 it was 1.64 µM and 1.45 µM; with RPMI-8226 leukemia it was 1.63 µM; in the test on SNB-19 CNS, 4.16 µM and 3.18 µM; in the test with SK-OV-3 ovarian, 4.48 µM and 3.79 µM. For the same compound, the GI50 with KM12 colon was 2.62 µM and 0.686 µM. The TGI in the test on T-47D breast was 16.3 µM and 8.72 µM; with HS 578T breast it was 7.14 µM and 4.91 µM; in the test on MDA-MB-435 it was 4.74 µM and 4.95 µM; with RPMI-8226 leukemia, 6.04 µM; in the test with SNB-19 CNS, 17.1 µM and > 10 µM; in the test with SK-OV-3 ovarian, 22.2 µM and > 10 µM. Besides, the TGI in the test with KM12 colon is 17.2 µM and 8.28 µM.
`COc1cc2c(cc1OCCCCOc1cc3c(cc1OC)C(=O)N1CCC[C@H]1CN3)N=C[C@@H]1CCCN1C2=O`: the GI50 in the test with T-47D breast was 0.512 µM; in the test with HS 578T breast, 0.823 µM; in the test with MDA-MB-435, 0.464 µM; with RPMI-8226 leukemia, 0.575 µM; in the test with SNB-19 CNS, 3.16 µM; in the test on SK-OV-3 ovarian it was 7.06 µM. In the test with KM12 colon, the GI50 is 1.97 µM. For the same compound, the TGI in the test with T-47D breast was greater than 100 µM; in the test on HS 578T breast, 2.63 µM; with MDA-MB-435 it was 10.4 µM; in the test on RPMI-8226 leukemia, 4.84 µM; in the test with SNB-19 CNS, greater than 100 µM; with SK-OV-3 ovarian it was greater than 100 µM. Also, the TGI in the test with KM12 colon was determined as 86.2 µM.
With `c1ccc2c(c1)c(NCCCCN1CCCCC1)cc1c3ccccc3c(NCCCCN3CCCCC3)cc21`, the GI50 with HS 578T breast was 27.5 µM; in the test with MDA-MB-435, 3.42 µM; with RPMI-8226 leukemia, 3.85 µM; in the test on SNB-19 CNS, 22.5 µM; in the test on SK-OV-3 ovarian, 18.3 µM; in the test on KM12 colon it was 2.97 µM. The TGI with HS 578T breast was 68.6 µM; in the test with MDA-MB-435 it was 12.3 µM; in the test on RPMI-8226 leukemia, 74.5 µM; in the test on SNB-19 CNS, 50.9 µM; in the test with SK-OV-3 ovarian it was 48.1 µM; with KM12 colon, 8.98 µM.
Take `O=C(/C(=C/c1ccc([N+](=O)[O-])cc1)c1ccccc1)c1ccccc1`: the GI50 with T-47D breast was 3.13 µM; with HS 578T breast it was 2.74 µM; with RPMI-8226 leukemia it was 2.36 µM; in the test with SNB-19 CNS, 3.9 µM; with SK-OV-3 ovarian, 4.19 µM; in the test with KM12 colon, 3.06 µM. In addition, the TGI with T-47D breast is greater than 100 µM; with HS 578T breast it was greater than 100 µM; in the test with RPMI-8226 leukemia, 6.49 µM; in the test on SNB-19 CNS it was greater than 100 µM; in the test with SK-OV-3 ovarian, greater than 100 µM; with KM12 colon, 9.52 µM.
With `COc1ccc2cc(-c3ccoc(=O)c3-c3cc(OC)c(OC)c(OC)c3)ccc2c1`, the GI50 was 0.0772 µM with T-47D breast; 0.134 µM in the test with HS 578T breast; 0.218 µM in the test on RPMI-8226 leukemia; 0.125 µM in the test on SNB-19 CNS; 0.389 µM in the test with SK-OV-3 ovarian; 0.0238 µM with KM12 colon. Moreover, the TGI in the test on T-47D breast is greater than 100 µM; in the test with HS 578T breast, greater than 100 µM; with RPMI-8226 leukemia, 13.4 µM; in the test on SNB-19 CNS, greater than 100 µM; in the test on SK-OV-3 ovarian it was greater than 100 µM.
Consider `COc1cc2nc(N3CCCC3)nc(NCC3CCCCC3)c2cc1OC`, for which the GI50 with T-47D breast is 1.45 µM; in the test on HS 578T breast, 1.79 µM; in the test with MDA-MB-435, 1.11 µM; in the test with SNB-19 CNS, 1.59 µM; in the test on SK-OV-3 ovarian, 1.75 µM; in the test with KM12 colon, 1.63 µM. Besides, the TGI in the test with T-47D breast amounted to 3.51 µM; with HS 578T breast, 3.71 µM; in the test on MDA-MB-435, 2.33 µM; in the test with SNB-19 CNS it was 2.99 µM; with SK-OV-3 ovarian, 3.24 µM; with KM12 colon, 3.13 µM.
Consider `Cc1ccc(-c2cc(-c3ccc(C)cc3)nc(NCCNc3ccnc4cc(Cl)ccc34)n2)cc1`, for which the GI50 in the test on T-47D breast is 1.74 µM; with MDA-MB-435, 1.77 µM; in the test on RPMI-8226 leukemia, 1.85 µM; in the test with SNB-19 CNS, 1.89 µM; with SK-OV-3 ovarian, 1.75 µM; in the test with KM12 colon, 1.75 µM. In addition, the TGI with T-47D breast worked out at 3.6 µM; with MDA-MB-435, 3.35 µM; with RPMI-8226 leukemia, 4.45 µM; in the test on SNB-19 CNS, 3.76 µM; in the test on SK-OV-3 ovarian, 3.34 µM; with KM12 colon it was 3.38 µM.
`C=C1CC[C@@H]2[C@](C)(COC(C)=O)[C@@H](O)CC[C@@]2(C)[C@@H]1COc1ccc2ccc(=O)oc2c1`: the GI50 in the test on T-47D breast is greater than 100 µM; with HS 578T breast, 29.9 µM; in the test on MDA-MB-435, greater than 100 µM; in the test on RPMI-8226 leukemia, 26.3 µM; in the test with SNB-19 CNS it was greater than 100 µM; in the test with KM12 colon, greater than 100 µM. For the same compound, the TGI in the test with T-47D breast, in the test with HS 578T breast, in the test on MDA-MB-435, with RPMI-8226 leukemia, in the test with SNB-19 CNS and in the test with KM12 colon was greater than 100 µM throughout.
With `Clc1cc(Cl)c(OCC#CI)cc1Cl`, the GI50 in the test on T-47D breast was 1.22 µM; with HS 578T breast it was 16.9 µM; in the test with MDA-MB-435, 2.02 µM; with RPMI-8226 leukemia it was 2.27 µM; in the test with SNB-19 CNS it was 18.3 µM; in the test on KM12 colon it was 13.9 µM. Further, the TGI in the test with T-47D breast was 3.01 µM; in the test on HS 578T breast, 50.4 µM; in the test with MDA-MB-435, 5.44 µM; with RPMI-8226 leukemia, 8.38 µM; in the test on SNB-19 CNS, 43.9 µM; with KM12 colon it was 27.5 µM.
